In PMC5137954, “Importance of measuring testosterone in enzyme-inhibited plasma for oral testosterone undecanoate androgen replacement therapy clinical trials” (Future Science OA, 2015):

Experiments:
[1] = Stability of T and DHT in NaF/Na2EDTA plasma in presence of TU, DHTU and glucuronides (method validation); details: for increase of the T and DHT concentrations (degradation of TU and DHTU into T or DHT): low and high QCs, room temperature or 4°C, long-term storage at -20 and -80°C; for % Bias of testosterone concentration / % Bias of dihydrotestosterone concentration: DHTU and glucuronides
Description: The methods were validated as per the most recent US FDA and EMA validation guidelines. During the method validation, the accuracy, precision, within-run, between-run, selectivity, matrix effect as well as the stability (stability in whole blood at 4°C, short-term stability in matrix at room temperature, freeze–thaw stability at -20°C/-80°C, long-term stability at -20°C/-80°C) were evaluated.
The impact of the glucuronide was also assessed in whole blood during sample collection and handling.
Moreover, the possible degradation of TU and DHTU into T or DHT was assessed when low and high T and DHT level quality controls were submitted to freeze–thaw cycles, incubation at room temperature or 4°C and long-term storage at -20 and -80°C.
Low QC samples were fortified with testosterone undecanoate (3000 ng/dL), dihydrotestosterone undecanoate (1500 ng/dL), testosterone glucuronide (800 ng/dL) and dihydrotestosterone undecanoate (400 ng/dL). High QC samples were fortified with testosterone undecanoate (219000 ng/dL), dihydrotestosterone undecanoate (235100 ng/dL), testosterone glucuronide (93600 ng/dL) and dihydrotestosterone undecanoate (21900 ng/dL). The%Bias must be within 15%.

[2] = Clinical study of oral TU: T and DHT in serum versus NaF/Na2 EDTA plasma; details: day 84, oral TU twice daily, fed, 15 hypogonadal men; serum vs NaF-Na2 EDTA plasma
Description: A clinical study was performed at the inVentiv Health Clinical facilities where fifteen asymptomatic hypogonadal male subjects aged 18 to 75 years were administered an oral dose of TU twice daily for 84 consecutive days under fed conditions. Each volunteer was informed on the risk of procedure and risk of the clinical study by signing the informed consent. On day 84, serum and plasma samples were collected predose and at 1.5, 3, 4, 5, 6, 8, 10, 12, 13.5, 15, 16, 17, 18, 20, 22 and 24 h after the morning dose. One of the main objectives of this study part was to compare the levels of T and DHT measured with a validated method in NaF/Na2 EDTA plasma to the levels measured in serum.
Pharmacokinetic (PK) parameters were assessed using samples collected on day 84: Ln-transformed area under the concentration–time curve (AUC0–24) and the maximum concentration of analyte (Cmax0–24) obtained with the study samples collected from 0–24 h after the morning dose of TU on last study day 84 were used to compare the levels of testosterone, DHT, TU and DHTU measured in serum in comparison to the levels measured in plasma.
Data reported in Table 5 were obtained from a cohort of 15 subjects undergoing a clinical study of a novel formulation of TU. Table 5 presents summaries of the comparison of the PK results for T and DHT obtained using serum and plasma samples for each analyte. Figure 2 presents the mean analyte concentrations obtained from the serum and plasma samples.

[3] = TU to T conversion depending on the TU spiking solvent used; type: in vitro ADME, human
Description: We decided to investigate further to better understand the discordance between the conclusions. Literature descriptions of sample preparations include a stock solution prepared in ethanol and diluted in phosphate buffer saline (PBS). In the experiments carried out in the study reported here, it was observed that the stock and spiking solution preparation is very important. A stock solution of TU was prepared in ethanol and diluted with PBS prior to being added to whole blood. Results from this procedure were compared with those typically used in our experiments with TU stock prepared and diluted using methanol, prior to being added to whole blood. It was observed that a precipitate occurred in the PBS solution after a freeze–thaw cycle.
To investigate this effect further, freshly collected whole blood was collected in conventional serum tubes and in NaF/K2C2O4 tubes. Each whole blood tube was fortified with TU at a final concentration of 60,000 ng/dl with solution prepared either in methanol or in ethanol/PBS; each experiment was performed in triplicate. Serum samples were incubated at room temperature for 30 and 60 min, and plasma samples were incubated for 10, 30 and 60 min at 4°C. T and TU were analyzed in the plasma and serum samples obtained.

[4] = conclusion of a published method validation; cited from earlier work
[5] = in serum or plasma, sometimes; cited from earlier work

In the case of `C[C@]12CC[C@H]3[C@@H](CCC4=CC(=O)CC[C@@]43C)[C@@H]1CC[C@@H]2O[C@@H]1O[C@H](C(=O)O)[C@@H](O)[C@H](O)[C@H]1O` [Testosterone glucuronide, testosterone glucuronide], the “impact on the quantitation of T and DHT” value ([1]; low and high QCs fortified with testosterone glucuronide, freeze–thaw cycles, room temperature, 4°C, long-term storage at -20 or -80°C) is reported as “no impact”.

For `CCCCCCCCCCC(=O)O[C@H]1CCC2C3CCC4CC(=O)CC[C@]4(C)C3CC[C@@]21C` (stereo partly drawn) [DHTU, 5-alpha-dihydrotestosterone undecanoate], the “increase of the T and DHT concentrations (degradation of TU and DHTU into T or DHT)” value ([1]; freeze–thaw cycles) was “No increase”.

In the case of `C[C@]12CC[C@H]3[C@@H](CCC4=CC(=O)CC[C@@]43C)[C@@H]1CC[C@@H]2O` [Testosterone, testosterone], the “% Bias of testosterone concentration” value ([1]; High QC 2300.0 ng/dL fortified with TU, Freeze/Thaw at -20°C (4 Cycles)) is reported as -3.3%, the “% Bias of testosterone concentration” value ([1]; High QC 2300.0 ng/dL fortified with TU, Freeze/Thaw at -80°C (4 Cycles)) is reported as -3.4% and the “% Bias of testosterone concentration” value ([1]; High QC 2300.0 ng/dL fortified with TU, Long-Term at -20°C for 14 days) is reported as -1.8%. The “% Bias of testosterone concentration” value ([1]; High QC 2300.0 ng/dL fortified with TU, Long-Term at -80°C for 14 days) was -3.1%, the “% Bias of testosterone concentration” value ([1]; High QC 2300.0 ng/dL fortified with TU, Post-Preparative at RT for 69 hrs) was 10.1% and the “% Bias of testosterone concentration” value ([1]; High QC 2300.0 ng/dL fortified with TU, Short-Term at 4°C for 21 hrs) was 0.6%. For the same compound, the “% Bias of testosterone concentration” value ([1]; High QC 2300.0 ng/dL fortified with TU, Short-Term at RmT for 23 hrs) was 0.2%, the “% Bias of testosterone concentration” value ([1]; High QC 2300.0 ng/dL fortified with TU, Whole Blood on ice for 110 min) was 8.3% and the “% Bias of testosterone concentration” value ([1]; Low QC 40.0 ng/dL fortified with TU, Freeze/Thaw at -20°C (4 Cycles)) was -5.8%. The “% Bias of testosterone concentration” value ([1]; Low QC 40.0 ng/dL fortified with TU, Freeze/Thaw at -80°C (4 Cycles)) was -5.8%, the “% Bias of testosterone concentration” value ([1]; Low QC 40.0 ng/dL fortified with TU, Long-Term at -20°C for 14 days) was -1.9% and the “% Bias of testosterone concentration” value ([1]; Low QC 40.0 ng/dL fortified with TU, Long-Term at -80°C for 14 days) was 2.1%. For the same compound, the “% Bias of testosterone concentration” value ([1]; Low QC 40.0 ng/dL fortified with TU, Post-Preparative at RT for 69 hrs) was 14.0%, the “% Bias of testosterone concentration” value ([1]; Low QC 40.0 ng/dL fortified with TU, Short-Term at 4°C for 21 hrs) was -4.2% and the “% Bias of testosterone concentration” value ([1]; Low QC 40.0 ng/dL fortified with TU, Short-Term at RmT for 23 hrs) was -2.5%. The “% Bias of testosterone concentration” value ([1]; Low QC 40.0 ng/dL fortified with TU, Whole Blood on ice for 110 min) was -11.1%, the “Ratio (serum/plasma) of AUC0–24” value [2] was 130.02% and the “Ratio (serum/plasma) of Cmax0–24” value [2] was 134.01%.

With `CCCCCCCCCCC(=O)O[C@H]1CCC2C3CCC4=CC(=O)CC[C@]4(C)C3CC[C@@]21C` (stereo partly drawn) [TU, Testosterone undecanoate] the “Mean TU Concentration” value ([3]; whole blood spiked with TU in PBS, 60,000 ng/dl, 30 min serum RT) was 3991.0 ng/dL, the “Mean TU Concentration” value ([3]; whole blood spiked with TU in PBS, 60,000 ng/dl, 60 min serum RT) was 5892.3 ng/dL and the “Mean TU Concentration” value ([3]; whole blood spiked with TU in PBS, 60,000 ng/dl, NaF/K2C2O4 plasma 10 min 4°C) was 74408.7 ng/dL. The “Mean TU Concentration” value ([3]; whole blood spiked with TU in PBS, 60,000 ng/dl, NaF/K2C2O4 plasma 30 min 4°C) was 54088.0 ng/dL, the “Mean TU Concentration” value ([3]; whole blood spiked with TU in PBS, 60,000 ng/dl, NaF/K2C2O4 plasma 60 min 4°C) was 26618.7 ng/dL and the “Mean TU Concentration” value ([3]; whole blood spiked with TU in methanol, 60,000 ng/dl, 30 min serum RT) was 97110.3 ng/dL. The “Mean TU Concentration” value ([3]; whole blood spiked with TU in methanol, 60,000 ng/dl, 60 min serum RT) was 96132.3 ng/dL, the “Mean TU Concentration” value ([3]; whole blood spiked with TU in methanol, 60,000 ng/dl, NaF/K2C2O4 plasma 10 min 4°C) was 97235.0 ng/dL and the “Mean TU Concentration” value ([3]; whole blood spiked with TU in methanol, 60,000 ng/dl, NaF/K2C2O4 plasma 30 min 4°C) was 95628.0 ng/dL. For the same compound, the “Mean TU Concentration” value ([3]; whole blood spiked with TU in methanol, 60,000 ng/dl, NaF/K2C2O4 plasma 60 min 4°C) was 93816.3 ng/dL, the “increase of the T and DHT concentrations (degradation of TU and DHTU into T or DHT)” value ([1]; freeze–thaw cycles) was “No increase” and the “stability of TU in blood” value [4] was “stable”. The “TU concentration higher than the testosterone concentration” value [5] was 20- to 30 times.

With `C[C@]12CCC(=O)C[C@@H]1CC[C@@H]1[C@@H]2CC[C@]2(C)[C@@H](O)CC[C@@H]12` [Dihydrotestosterone, dihydrotestosterone] the “% Bias of dihydrotestosterone concentration” value ([1]; High QC 430.0 ng/dL fortified with TU, Freeze/Thaw at -20°C (4 Cycles)) was -10.2%, the “% Bias of dihydrotestosterone concentration” value ([1]; High QC 430.0 ng/dL fortified with TU, Freeze/Thaw at -80°C (4 Cycles)) was -10.7% and the “% Bias of dihydrotestosterone concentration” value ([1]; High QC 430.0 ng/dL fortified with TU, Long-Term at -20°C for 14 days) was -4.4%. For the same compound, the “% Bias of dihydrotestosterone concentration” value ([1]; High QC 430.0 ng/dL fortified with TU, Long-Term at -80°C for 14 days) was -5.4%, the “% Bias of dihydrotestosterone concentration” value ([1]; High QC 430.0 ng/dL fortified with TU, Post-Preparative at RT for 69 hrs) was 8.6% and the “% Bias of dihydrotestosterone concentration” value ([1]; High QC 430.0 ng/dL fortified with TU, Short-Term at 4°C for 21 hrs) was -0.5%. The “% Bias of dihydrotestosterone concentration” value ([1]; High QC 430.0 ng/dL fortified with TU, Short-Term at RT for 23 hrs) was 2.5%, the “% Bias of dihydrotestosterone concentration” value ([1]; High QC 430.0 ng/dL fortified with TU, Whole Blood on Ice for 110 min) was 0.3% and the “% Bias of dihydrotestosterone concentration” value ([1]; Low QC 19.2 ng/dL fortified with TU, Freeze/Thaw at -20°C (4 Cycles)) was -14.6%. The “% Bias of dihydrotestosterone concentration” value ([1]; Low QC 19.2 ng/dL fortified with TU, Freeze/Thaw at -80°C (4 Cycles)) was -14.9%, the “% Bias of dihydrotestosterone concentration” value ([1]; Low QC 19.2 ng/dL fortified with TU, Long-Term at -20°C for 14 days) was -8.7% and the “% Bias of dihydrotestosterone concentration” value ([1]; Low QC 19.2 ng/dL fortified with TU, Long-Term at -80°C for 14 days) was -8.1%. The “% Bias of dihydrotestosterone concentration” value ([1]; Low QC 19.2 ng/dL fortified with TU, Post-Preparative at RT for 69 hrs) was 5.1%, the “% Bias of dihydrotestosterone concentration” value ([1]; Low QC 19.2 ng/dL fortified with TU, Short-Term at 4°C for 21 hrs) was -9.1% and the “% Bias of dihydrotestosterone concentration” value ([1]; Low QC 19.2 ng/dL fortified with TU, Short-Term at RT for 23 hrs) was -6.1%. For the same compound, the “% Bias of dihydrotestosterone concentration” value ([1]; Low QC 19.2 ng/dL fortified with TU, Whole Blood on Ice for 110 min) was -6.1%, the “Ratio (serum/plasma) of AUC0–24” value [2] was 122.40% and the “Ratio (serum/plasma) of Cmax0–24” value [2] was 130.61%.
